The values below are quoted from earlier work in publication PMC6385020 (Molecules, 2019).

In one series the test system is c-myc G4. Also on record: method as in PMID 21528379. The conditions noted are these: cited from earlier work.
The test system of the next series is 21CTA G4. More on the design: method as in PMID 21528379. The following applies: cited from earlier work.
In another series the test system is 22AG G4. Also on record: method as in PMID 28825434. The following applies: K+100 buffer, 20 °C; cited from earlier work.
Series [1] concerns all the tested G4s structures. Also on record: method as in PMID 21528379. The conditions noted are these: cited from earlier work.

Several values for one entry are separate records, joined by “and”; a condition that tells them apart may be missing. Equal entries are not always repeated.

Regarding `CN1C(=Cc2cc[n+](C)c3ccccc23)Sc2ccccc21` [TO, Thiazole Orange], the KA in the series with c-myc G4 is 5 × 10^6 M^−1 and 5 × 10^6 (b) M^−1; with 21CTA G4, 1 × 10^6 (b) M^−1; with 22AG G4 it was 1 × 10^6 (a) M^−1. Besides, in series [1], the “affinity constants towards all the tested G4s structures (Ka)” value is recorded as ~ 10^6 M^−1.
